Read-outs that look alike come from different tables or passages of the source. No end group written: not given here.
Columns and labels:
[1] = system: VEEV TC-83 vaccine strain; conditions: cited from earlier work
[2] = system: wild-type Trinidad Donkey (TrD) strain of VEEV; conditions: cited from earlier work
VEEV TC-83 [3] = assay type: cell-based, Venezuelan equine encephalitis virus
VEEV TrD strain [4] = assay type: cell-based, Venezuelan equine encephalitis virus
RVFV (MP-12 strain) = assay type: cell-based, Rift Valley fever virus
[5] = system: 84 human inflammatory cytokines and receptors; assay type: cell-based
[6] = system: IFNγ, IL1α, IL1β, IL2, IL4, IL6, IL10, IL12p70, TNFα; assay type: cell-based, human
[7] = system: 84 human inflammatory cytokines and receptors; assay type: cell-based; remark: listed apart in the source
HMC3 cells = conditions: 24 h
[8] = system: IFNγ, IL1α, IL1β, IL2, IL4, IL6, IL10, IL12p70, TNFα; assay type: cell-based, human; remark: listed apart in the source
VEEV TC-83 [9] = assay type: cell-based, Venezuelan equine encephalitis virus; remark: listed apart in the source
VEEV TC-83 [10] = assay type: cell-based, Venezuelan equine encephalitis virus; remark: listed apart in the source
VEEV TC-83 [11] = assay type: cell-based, Venezuelan equine encephalitis virus; remark: listed apart in the source
EEEV (GA97 strain) = assay type: cell-based, eastern equine encephalitis virus
VEEV TrD strain [12] = assay type: cell-based, Venezuelan equine encephalitis virus; remark: listed apart in the source
VEEV TC-83 [13] = assay type: cell-based, Venezuelan equine encephalitis virus; remark: listed apart in the source
VEEV TC-83 [14] = assay type: cell-based, Venezuelan equine encephalitis virus; remark: listed apart in the source

LL-37 (LLGDFFRKSKEKIGKEFKRIVQRIKDFLRNLVPRTES; Antibacterial peptide LL-37; UniProt P49913 134-170, looked up)
inhibition of viral titers [1]: approximately 100 fold
inhibition of viral titers [2]: ~1,000 fold

FAVVKFRFWVWWFRWR-NH2 [A2]
decrease in TC-83 infectious titers (VEEV TC-83 [3]): ~ 1,000 fold
decrease of TrD titers (VEEV TrD strain [4]): about 100 fold
inhibition of replication of RVFV (RVFV (MP-12 strain)): less than tenfold
Fold Regulation, CCL2 [5]: -2.07
genes above/below a twofold regulation change [5]: eight
production of cytokines, pro-inflammatory and anti-inflammatory, from uninfected cells [6]: decreased the production of cytokines
Fold Regulation, AIMP1 [7]: -2.17
Fold Regulation, B2M [7]: -2.51
Fold Regulation, C5 [7]: -3.11
Fold Regulation, CCL1 [7]: -2.21
Fold Regulation, CCL3 [7]: -11.1
Fold Regulation, CCL4 [7]: -12.54
Fold Regulation, CCL7 [7]: -3.26
Fold Regulation, CCL8 [7]: -6.18
Fold Regulation, CCL13 [7]: -2.73
Fold Regulation, CCL17 [7]: -2.71
Fold Regulation, CCL20 [7]: -2.91
Fold Regulation, CCL23 [7]: -2.03
Fold Regulation, CCL24 [7]: -2.6
Fold Regulation, CCL26 [7]: -2.44
Fold Regulation, CCR1 [7]: -2.78
Fold Regulation, CCR2 [7]: -7.36
Fold Regulation, CCR3 [7]: -2.71
Fold Regulation, CCR5 [7]: -3.23
Fold Regulation, CCR6 [7]: -5.15
Fold Regulation, CCR8 [7]: -2.77
Fold Regulation, CD40LG [7]: -8.44
Fold Regulation, CSF1 [7]: -2.23
Fold Regulation, CSF2 [7]: -7.67
Fold Regulation, CSF3 [7]: -8.01
Fold Regulation, CXCL1 [7]: -2.79
Fold Regulation, CXCL2 [7]: -2.97
Fold Regulation, CXCL3 [7]: -8.92
Fold Regulation, CXCL5 [7]: -3.43
Fold Regulation, CXCL6 [7]: -3.46
Fold Regulation, CXCL8 [7]: -4.74
Fold Regulation, CXCL9 [7]: -2.67
Fold Regulation, CXCR1 [7]: -4.9
Fold Regulation, CXCR2 [7]: -2.22
Fold Regulation, FASLG [7]: -2.27
Fold Regulation, HPRT1 [7]: -2.53
Fold Regulation, IFNA2 [7]: -4.07
Fold Regulation, IL1A [7]: -40.4
Fold Regulation, IL1B [7]: -4.37
Fold Regulation, IL1R1 [7]: -2.63
Fold Regulation, IL1RN [7]: 2.19
Fold Regulation, IL3 [7]: -2.76
Fold Regulation, IL5 [7]: -5.46
Fold Regulation, IL5RA [7]: -4.55
Fold Regulation, IL7 [7]: 9.88
Fold Regulation, IL9 [7]: -3.51
Fold Regulation, IL9R [7]: -2.48
Fold Regulation, IL10RA [7]: -3.22
Fold Regulation, IL10RB [7]: -2.31
Fold Regulation, IL13 [7]: -4.71
Fold Regulation, IL15 [7]: -2.47
Fold Regulation, IL16 [7]: -2.42
Fold Regulation, IL17A [7]: -10.02
Fold Regulation, IL17F [7]: -13.11
Fold Regulation, IL21 [7]: -2.43
Fold Regulation, IL27 [7]: -2.99
Fold Regulation, LTA [7]: -4.72
Fold Regulation, LTB [7]: -3.31
Fold Regulation, NAMPT [7]: -2.42
Fold Regulation, OSM [7]: -9.67
Fold Regulation, RPLP0 [7]: -2.88
Fold Regulation, SPP1 [7]: -2.4
Fold Regulation, TNF [7]: -9.95
Fold Regulation, TNFRSF11B [7]: -4.24
Fold Regulation, TNFSF4 [7]: -2.68
Fold Regulation, TNFSF10 [7]: -2.78
Fold Regulation, TNFSF11 [7]: -4.37
Fold Regulation, TNFSF13 [7]: -6.12
Fold Regulation, TNFSF13B [7]: -3.19
genes down regulated (twofold) [7]: 67 genes
genes out of 84 with greater than twofold change in regulation [7]: 71 genes
genes upregulated (greater than twofold) [7]: 4 genes
CC50 (HMC3 cells): greater than 250 µg/mL
secretion of cytokines from TC-83 infected cells [8]: inhibit secretion of cytokines
genomic TC-83 RNA copy numbers (intracellular and extracellular) (VEEV TC-83 [9]): reduced
decrease in extracellular genomic TC-83 RNA copy numbers (VEEV TC-83 [10]): more than 50%
decrease in intracellular genomic TC-83 RNA copy numbers (VEEV TC-83 [10]): more than 50%
inhibition of VEEV attachment (amount of viral RNA entering cells) (VEEV TC-83 [11]): inhibited VEEV attachment to cells
inhibition of replication of EEEV (EEEV (GA97 strain)): higher than tenfold
lower levels of EEEV replication, pre-treated cells (EEEV (GA97 strain)): ~ 4.5 fold
TrD titer inhibition, cells treated at infection relative to pre-treated cells (VEEV TrD strain [12]): tenfold
decrease of TrD titers (VEEV TrD strain [12]): about 100 fold

FQAVKFRFWVWWFRWR-NH2 [A3]
decrease in TC-83 infectious titers (VEEV TC-83 [3]): ~ 100 fold
decrease of TrD titers (VEEV TrD strain [4]): about 100 fold
inhibition of replication of RVFV (RVFV (MP-12 strain)): less than tenfold
Fold Regulation, CCL13 [5]: 2.44
Fold Regulation, CCL16 [5]: 3.4
Fold Regulation, CCL22 [5]: 3.4
Fold Regulation, CX3CR1 [5]: 2.38
Fold Regulation, CXCL9 [5]: 3.12
Fold Regulation, FASLG [5]: 2.15
Fold Regulation, IL9R [5]: 2.56
Fold Regulation, IL33 [5]: 3.21
genes above/below a twofold regulation change [5]: 30 genes
genes down-regulated (twofold) [5]: 2 genes
genes upregulated (twofold) [5]: 28 genes
production of cytokines, pro-inflammatory and anti-inflammatory, from uninfected cells [6]: decreased the production of cytokines
Fold Regulation, C5 [7]: -4.7
Fold Regulation, CCL1 [7]: -3.46
Fold Regulation, CCL3 [7]: -6.01
Fold Regulation, CCL4 [7]: -10.37
Fold Regulation, CCL5 [7]: -2.56
Fold Regulation, CCL17 [7]: -2.48
Fold Regulation, CCL20 [7]: -2.88
Fold Regulation, CCL26 [7]: -2.76
Fold Regulation, CCR1 [7]: -2.01
Fold Regulation, CCR8 [7]: -2.56
Fold Regulation, CD40LG [7]: -13.61
Fold Regulation, CSF1 [7]: -2.16
Fold Regulation, CSF2 [7]: -6.65
Fold Regulation, CSF3 [7]: -2.47
Fold Regulation, CX3CL1 [7]: -40.25
Fold Regulation, CXCL2 [7]: -2.14
Fold Regulation, CXCL3 [7]: -7.92
Fold Regulation, CXCL5 [7]: -2.3
Fold Regulation, CXCL8 [7]: -3.42
Fold Regulation, CXCL10 [7]: -2.5
Fold Regulation, CXCL12 [7]: -2.21
Fold Regulation, CXCL13 [7]: -2.43
Fold Regulation, IL1A [7]: -75.02
Fold Regulation, IL1B [7]: -3.92
Fold Regulation, IL1R1 [7]: -2.45
Fold Regulation, IL5 [7]: -4.29
Fold Regulation, IL5RA [7]: -6.83
Fold Regulation, IL10RA [7]: -2.36
Fold Regulation, IL10RB [7]: -3.04
Fold Regulation, IL15 [7]: -2.18
Fold Regulation, IL16 [7]: -2.19
Fold Regulation, IL17F [7]: -17.44
Fold Regulation, IL27 [7]: -3.21
Fold Regulation, LTB [7]: -2.77
Fold Regulation, OSM [7]: -11.73
Fold Regulation, RPLP0 [7]: -2.15
Fold Regulation, TNF [7]: -30.83
Fold Regulation, TNFRSF11B [7]: -3.73
Fold Regulation, TNFSF10 [7]: -3.34
Fold Regulation, TNFSF13B [7]: -4.76
genes down regulated (twofold) [7]: 60 genes
CC50 (HMC3 cells): greater than 250 µg/mL
secretion of cytokines from TC-83 infected cells [8]: inhibit secretion of cytokines
genomic TC-83 RNA copy numbers (intracellular and extracellular) (VEEV TC-83 [9]): reduced
decrease in extracellular genomic TC-83 RNA copy numbers (VEEV TC-83 [10]): more than 50%
decrease in intracellular genomic TC-83 RNA copy numbers (VEEV TC-83 [10]): more than 50%
inhibition of VEEV attachment (amount of viral RNA entering cells) (VEEV TC-83 [11]): tenfold
inhibition of replication of EEEV (EEEV (GA97 strain)): higher than tenfold
lower levels of EEEV replication, pre-treated cells (EEEV (GA97 strain)): ~ 4.5 fold
TrD inhibitory response, pre-treatment relative to no pre-treatment (VEEV TrD strain [12]): tenfold
decrease of TrD titers (VEEV TrD strain [12]): about 100 fold

ILPWKWPWWPWRR-NH2 [Indolicidin, indolicidin]
antiviral activity against VEEV (VEEV TC-83 [13]): no antiviral activity

FQVVKFRFWVWWFRWR [G8]
VEEV TC-83 titer inhibition (VEEV TC-83 [14]): comparable to a known inhibitor, bortezomib

Source: article PMC7722873 (Scientific Reports, 2020)
